In ChEMBL document CHEMBL1158141, “A sorbicillinoid urea from an intertidal Paecilomyces marquandii” (2006):

Key:
Bacillus subtilis = assay: Antibiotic activity against Bacillus subtilis ATCC 6633 by agar diffusion method; format: functional
Escherichia coli = assay: Antibiotic activity against Escherichia coli ATCC 25922 by agar diffusion method; format: functional

Compound | inhibition zone (IZ) (Bacillus subtilis) [mm] | inhibition zone (IZ) (Escherichia coli) [mm]
CC(C)C[C@@H]1NC(=O)[C@H](Cc2ccccc2)NC1=O | 10 | 8
CC(C)[C@@H]1NC(=O)[C@H](Cc2ccccc2)NC1=O | 9 | 8
